Patent US20030228675A1, “ATM related kinase ATX, nucleic acids encoding same and methods of use” (priority 2002, published 2003)

Legend:
U2OS cells [1] = test: Clonogenic survival assay of oligonucleotide-transfected cells; type: cell-based, human; details: non-irradiated, 10 days in culture
Procedure: To address concerns related to potential non-specific effects of ATXKI expression on cellular functions, an antisense oligonucleotide-based approach to reduce the level of ATX expression in U2OS cells was developed. The cells were mock transfected, or transfected with sense (S) or antisense (AS) oligonucleotides, and then treated for 24 h with various genotoxic agents. The cells were then trypsinized and replated, and clonogenic survival was analyzed after 10 days in culture. The results obtained with AS-treated cells were strikingly similar to those obtained with the ATXKI-expressing cells (FIGS. 2A-C). While transfection of U2OS cells with the S oligonucleotide reduced the basal level of colony outgrowth by 25%, treatment with the AS oligonucleotide decreased basal clonogenic activity by 75% (FIG. 2C, right panel). […] The reduction in ATX protein caused by AS treatment ranged from 50-90% in over 10 independent trials.
To prepare recombinant HA-tagged ATX and ATM proteins, HEK 293T cells were plated onto 60-mm dishes (9×10^5 cells per dish), and were transfected with 5 μg pcDNA3.1 (empty vector), HA-ATXWT, HA-ATXKI, or HA-ATMWT plasmid DNAS. Transfections were performed with the Fugene 6 transfection reagent (Roche), according to the manufacturer's instructions. For NMD assays (see Example 9, below), U2OS cells were seeded onto 100 mm dishes (1×10^6 cells per dish). […]
U2OS cells were seeded into 60 mm dishes (1×10^5 cells per dish) in complete medium. […] To quantitate the outgrowth of drug-resistant cells, the Coomassie Blue-bound protein was solubilized at 37° C. with 0.1 M NaOH, and the soluble material was analyzed by absorbance spectroscopy at a wavelength of 590 nm. […] Drug-resistant colonies were stained with Coomassie Blue after 10 days in culture, and the samples were analyzed with Image Pro Plus software to quantitate cell density. […]

U2OS cells [2] = test: Cell-cycle distribution by flow cytometry; type: cell-based, human; details: 24 h post-irradiation
Procedure: Since p53 plays a central role in activation of the G1 checkpoint, and influences S, G2, and M checkpoints as well (Giaccia and Kastan, Genes & Development 12:2973-2983 (1998); Ko and Prives, supra, 1996), a functional deficiency of ATX might alter the cell-cycle arrest responses to IR and other genotoxic agents. To test this possibility, U2OS cells were pre-treated with S or AS oligonucleotides, exposed to IR, and cell-cycle distributions at 24 h post-irradiation were determined.
The G2 checkpoint inhibitor was added to the culture medium at 8 h prior to harvest for determination of cell-cycle distributions (FIG. 3E, left panel), and immunoblotting for ATX expression (right panel).

p53 = test: Stress-induced p53 Ser-15 phosphorylation and p53 accumulation by immunoblotting; type: cell-based, human; details: U2OS treated with the drug
Procedure: To prepare recombinant HA-tagged ATX and ATM proteins, HEK 293T cells were plated onto 60-mm dishes (9×10^5 cells per dish), and were transfected with 5 μg pcDNA3.1 (empty vector), HA-ATXWT, HA-ATXKI, or HA-ATMWT plasmid DNAS. Transfections were performed with the Fugene 6 transfection reagent (Roche), according to the manufacturer's instructions. For NMD assays (see Example 9, below), U2OS cells were seeded onto 100 mm dishes (1×10^6 cells per dish). After 20 h, cells were transfected with 1.5 μg of pmCMV-Gl test plasmid, either Norm or 39Ter (Ishigaki et al., 2001); 1.5 μg of phCMV-MUP reference plasmid (Ishigaki et al., Cell 106:607-617 (2001)); and 7 μg of empty plasmid (pcDNA 3.1), plasmids encoding HA-ATMWT, HA-ATMKI, HA-ATXWT or HA-ATXKI. For antisense transfection experiments, U2OS cells were seeded onto 60 mm dishes (1×10^5 cells per dish) in complete medium supplemented with penicillin/streptomycin. After 30 h, cells were either mock transfected or transfected with sense (S) or antisense (AS) phosphorothioate oligonucleotides (Genset Oligos, La Jolla, Calif.). The S oligonucleotide spans ATX nucleotides 210-229 (5′-[…]-3′), and the AS oligonucleotide is complementary to this sequence (5′-[…]-3′). The cells were transfected with oligonucleotides at final concentrations of 8 μg/ml, with Fugene 6:DNA ratio of 1.6:1. Forty-eight hours after transfection, dishes were exposed to IR, UV-B, or 5-FU, and then harvested for immunoblotting, cell-cycle distribution, or cell survival assays. To examine ATX protein levels in oligonucleotide-treated cells, whole cell extracts were resolved by SDS-PAGE and immunoblotted with α-ATX Ab-1. When oligonucleotide-transfected cells were used for NMD assays, U2OS cells were seeded in culture dishes as described above. The cells were transfected using the Fugene reagent, with 1.5 μg of pmCMV-Gl test plasmid, 0.7 μg of phCMV-MUP reference plasmid, and 24 μg of S or AS oligonucleotide.
A major mediator of stress-induced signaling in mammalian cells is the tumor suppressor protein, p53 (Ko and Prives, Genes and Development 10:1054-1072, (1996); Ryan et al., Curr. Opin. Cell Biol. 13:332-337 (2001)). ATX phosphorylates p53 on Ser-15 (FIG. 1C), a site implicated in the regulation of p53 stability and transcriptional activity (Dumaz and Meek, Curr. Opin. Cell Biol. 13:225-231 (1999); Zhang and Xiong, Science 292:1910-1915 (2001)). Therefore, the possibility that these two proteins are functionally linked during cellular stress responses was investigated. U2OS cells were transiently transfected with a HA-ATXWT or HA-ATXKI expression plasmid, together with a GFP-encoding plasmid to allow for FACS-based enrichment of the transfected cells. The GFP+ cells were then examined for IR-induced stabilization of p53, as well as for specific phosphorylation of this protein on Ser-15. […] In contrast, overexpression of ATXWT enhanced both of these responses in cells exposed to IR.
The recognition of UV light-induced DNA damage occurs primarily during S phase, when pyrimidine dimers and other bulky lesions interfere with replication fork progression (Friedberg, DNA Repair and Mutagenesis (Washington, D.C., ASM Press) (1995); Lindahl and Wood, Cell 103:1121-1131 (1999)).
In order to further define the potential linkage between DNA replicational stress and ATX, the response of AS-treated cells to 5-fluorouracil (5-FU), an S-phase specific cytotoxic agent was examined (Danenberg et al., Seminars in Oncology 26:621-631 (1999); Grem, Investigational New Drugs 18:299-313 (2000)).
Changes in phosphorylation at Ser-15 are typically accompanied by alterations in the expression of the p53 protein, which complicates the interpretation of results obtained by immunoblotting of whole cell extracts with phospho-Ser-15-specific antibodies. […]

ATX [3] = biological target: T1, ATX (Homo sapiens, UniProt Q96Q15); test: Immune complex kinase assay, immunoprecipitated HA-ATXWT pretreated with drug, GST-p53 1-70 phosphorylation; type: biochemical; set-up: was used to isolate a full-length cDNA encoding a novel member of the PIKK family, termed ATX; made in house; details: pretreatment of immunoprecipitated HA-ATXWT; GST-p53 1-70 substrate; read-out: drug concentration required for 50% inhibition (IC50) of ATX activity in vitro
Procedure: With the exception of the TOR proteins, the PIKK family members that bear functional catalytic domains phosphorylate substrates bearing the Ser/Thr-Gln motif (Tibbetts and Abraham, supra, 2000). […] Detergent extracts from the transfected cell populations were immunoprecipitated with α-HA antibody, and protein kinase assays were performed in buffer containing Mn2+, [γ-32P]ATP, and a GST fusion protein containing the first 70 amino acids of p53 (GST-p531-70) as the substrate (FIG. 1C). The GST-p531-70 protein was previously identified as a substrate for ATM and ATR in immune complex kinase assays (Tibbetts et al., Genes and Development 13:152-157 (1999)). […] Based on the ratios of 32P incorporation into substrate to levels of HA-tagged protein kinase, it can be estimated that the specific kinase activity of ATXWT was approximately 3.5-fold higher than that of ATMWT. As observed with ATM as the test kinase (Banin et al., Science 281:1674-1677 (1998); Canman et al., Science 281:1677-1679 (1998); Tibbetts et al., supra, 1999), phosphorylation of GST-p531-70 by ATXWT was nearly abolished by substitution of the Ser-15 residue in p53 with Ala (FIG. 1C, right panel). […] In contrast to the amino-terminal fragment, of p53, the PHAS-I/4E-BP1 protein, which is the prototypical substrate for mTOR, was poorly phosphorylated by HA-ATXWT in immune complex kinase assays (data not shown). […]
Target sequence in this assay (Q96Q15 141-3661): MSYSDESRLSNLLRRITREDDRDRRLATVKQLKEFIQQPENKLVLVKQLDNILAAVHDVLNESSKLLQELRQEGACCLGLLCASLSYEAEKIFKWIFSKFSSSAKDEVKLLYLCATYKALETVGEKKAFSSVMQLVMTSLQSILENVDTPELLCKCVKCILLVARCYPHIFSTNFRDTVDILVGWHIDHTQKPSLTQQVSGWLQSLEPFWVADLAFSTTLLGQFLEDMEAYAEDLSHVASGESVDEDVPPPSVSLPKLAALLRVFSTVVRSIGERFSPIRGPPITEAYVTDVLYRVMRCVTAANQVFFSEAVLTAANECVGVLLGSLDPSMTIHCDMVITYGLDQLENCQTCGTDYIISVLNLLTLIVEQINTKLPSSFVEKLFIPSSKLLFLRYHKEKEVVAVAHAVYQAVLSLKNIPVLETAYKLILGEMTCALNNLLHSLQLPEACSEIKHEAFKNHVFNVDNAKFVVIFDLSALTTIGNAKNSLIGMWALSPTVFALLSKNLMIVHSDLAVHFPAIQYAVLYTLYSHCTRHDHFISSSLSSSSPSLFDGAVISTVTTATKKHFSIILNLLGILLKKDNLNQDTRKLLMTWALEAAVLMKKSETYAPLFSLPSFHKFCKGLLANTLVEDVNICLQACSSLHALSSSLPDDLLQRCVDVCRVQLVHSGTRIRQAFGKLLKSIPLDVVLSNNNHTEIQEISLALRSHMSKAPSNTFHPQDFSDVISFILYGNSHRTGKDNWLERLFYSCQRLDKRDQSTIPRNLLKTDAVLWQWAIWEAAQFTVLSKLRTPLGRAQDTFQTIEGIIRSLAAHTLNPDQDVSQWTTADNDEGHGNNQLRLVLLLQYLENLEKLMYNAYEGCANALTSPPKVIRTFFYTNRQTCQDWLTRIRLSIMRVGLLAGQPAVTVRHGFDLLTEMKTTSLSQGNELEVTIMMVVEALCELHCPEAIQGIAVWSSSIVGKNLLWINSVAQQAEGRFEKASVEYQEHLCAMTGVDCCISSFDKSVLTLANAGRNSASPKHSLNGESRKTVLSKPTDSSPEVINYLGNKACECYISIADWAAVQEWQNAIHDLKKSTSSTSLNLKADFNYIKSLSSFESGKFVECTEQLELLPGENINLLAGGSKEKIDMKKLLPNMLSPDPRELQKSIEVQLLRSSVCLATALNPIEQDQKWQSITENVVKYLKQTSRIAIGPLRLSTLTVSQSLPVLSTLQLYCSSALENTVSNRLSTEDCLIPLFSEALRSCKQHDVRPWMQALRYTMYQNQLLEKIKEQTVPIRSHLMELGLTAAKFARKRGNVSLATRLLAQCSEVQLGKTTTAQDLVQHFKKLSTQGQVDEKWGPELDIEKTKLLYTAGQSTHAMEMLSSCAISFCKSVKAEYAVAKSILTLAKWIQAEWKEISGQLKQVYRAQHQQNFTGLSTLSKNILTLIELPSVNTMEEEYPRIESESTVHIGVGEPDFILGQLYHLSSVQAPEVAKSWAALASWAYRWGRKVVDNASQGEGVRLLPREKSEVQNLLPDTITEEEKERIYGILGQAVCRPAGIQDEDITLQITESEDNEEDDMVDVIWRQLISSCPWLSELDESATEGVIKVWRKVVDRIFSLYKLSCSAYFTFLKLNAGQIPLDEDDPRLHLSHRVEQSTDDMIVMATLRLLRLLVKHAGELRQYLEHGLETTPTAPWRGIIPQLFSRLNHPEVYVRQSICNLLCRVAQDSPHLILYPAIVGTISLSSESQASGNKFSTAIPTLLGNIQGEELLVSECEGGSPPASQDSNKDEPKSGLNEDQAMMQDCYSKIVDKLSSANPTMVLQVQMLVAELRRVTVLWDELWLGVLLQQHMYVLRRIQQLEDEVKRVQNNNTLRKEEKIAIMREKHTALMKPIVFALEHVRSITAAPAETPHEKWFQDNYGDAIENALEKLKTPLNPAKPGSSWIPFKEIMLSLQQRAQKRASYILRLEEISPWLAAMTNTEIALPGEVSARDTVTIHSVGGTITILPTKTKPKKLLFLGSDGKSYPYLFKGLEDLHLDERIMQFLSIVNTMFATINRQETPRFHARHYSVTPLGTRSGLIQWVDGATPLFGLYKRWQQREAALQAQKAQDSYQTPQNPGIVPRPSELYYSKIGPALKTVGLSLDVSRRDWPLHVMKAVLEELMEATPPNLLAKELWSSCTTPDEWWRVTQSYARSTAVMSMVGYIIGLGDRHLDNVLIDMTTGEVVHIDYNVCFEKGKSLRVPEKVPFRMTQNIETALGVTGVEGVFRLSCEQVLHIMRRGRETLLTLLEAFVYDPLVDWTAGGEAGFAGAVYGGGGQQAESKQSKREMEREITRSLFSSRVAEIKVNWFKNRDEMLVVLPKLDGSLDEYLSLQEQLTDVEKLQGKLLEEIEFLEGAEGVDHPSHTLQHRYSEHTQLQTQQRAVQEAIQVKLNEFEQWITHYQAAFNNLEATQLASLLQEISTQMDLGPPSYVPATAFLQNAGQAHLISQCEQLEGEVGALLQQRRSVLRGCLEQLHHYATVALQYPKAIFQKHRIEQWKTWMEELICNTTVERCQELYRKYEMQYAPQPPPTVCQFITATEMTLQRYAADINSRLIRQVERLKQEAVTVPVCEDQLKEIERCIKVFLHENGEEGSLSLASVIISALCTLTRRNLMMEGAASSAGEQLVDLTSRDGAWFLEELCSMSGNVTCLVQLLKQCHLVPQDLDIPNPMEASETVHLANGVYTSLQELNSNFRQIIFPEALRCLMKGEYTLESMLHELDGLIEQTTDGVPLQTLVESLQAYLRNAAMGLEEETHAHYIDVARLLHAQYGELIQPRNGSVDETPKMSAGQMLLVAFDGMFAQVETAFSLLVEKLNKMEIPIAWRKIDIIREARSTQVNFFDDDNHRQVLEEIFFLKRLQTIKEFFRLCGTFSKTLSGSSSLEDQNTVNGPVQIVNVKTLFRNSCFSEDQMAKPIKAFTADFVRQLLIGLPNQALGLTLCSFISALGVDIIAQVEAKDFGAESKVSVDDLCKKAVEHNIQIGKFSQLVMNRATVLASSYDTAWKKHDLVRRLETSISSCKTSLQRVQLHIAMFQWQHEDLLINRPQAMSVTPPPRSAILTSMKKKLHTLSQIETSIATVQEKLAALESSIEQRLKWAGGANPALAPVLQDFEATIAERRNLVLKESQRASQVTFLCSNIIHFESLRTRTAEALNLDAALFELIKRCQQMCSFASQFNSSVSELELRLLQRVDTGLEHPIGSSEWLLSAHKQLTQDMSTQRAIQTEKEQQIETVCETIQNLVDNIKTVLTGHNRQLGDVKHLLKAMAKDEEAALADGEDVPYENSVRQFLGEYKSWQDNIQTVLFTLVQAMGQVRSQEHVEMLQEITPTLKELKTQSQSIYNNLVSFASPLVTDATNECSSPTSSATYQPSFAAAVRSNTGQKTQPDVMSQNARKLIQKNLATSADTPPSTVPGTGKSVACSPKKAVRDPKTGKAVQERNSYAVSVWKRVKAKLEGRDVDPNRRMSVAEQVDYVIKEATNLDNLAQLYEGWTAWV

ATX [4] = biological target: T1, ATX; test: ATX kinase activity after drug treatment of intact U2OS cells, immunoprecipitation of endogenous ATX; type: cell-based; set-up: immunoprecipitation of endogenous ATX with α-ATX Ab-2; endogenous in cells; host or cells: U2OS osteosarcoma cells; details: U2OS cells pretreated for 30 min, endogenous ATX immunoprecipitated with α-ATX Ab-2
Excerpt: The protein kinase activities of the mammalian PIKKs characteristically display a strong dependence on Mn2+ as a cofactor for the phosphotransferase reaction, and variable sensitivity to inhibition by wortmannin (Abraham, Genes and Development 15:2177-2196 (2001)). In our studies, the protein kinase activity of ATX was also dependent on the addition of Mn2+ the kinase reaction buffer (data not shown). […] Wortmannin is an irreversible inhibitor of PIKKs (Walker et al., Molecular Cells 6:909-919 (2000)) and can be used to assess the potency of this drug as an ATX inhibitor in intact cells. To this end, U2OS osteosarcoma cells were pretreated for 30 min with the indicated concentrations of wortmannin, followed by the preparation of cellular extracts for immunoprecipitation of endogenous ATX with α-ATX Ab-2. […]
For subcellular fractionations, U2OS cells were resuspended in cold homogenization buffer (25 mM Hepes, pH 7.4, 250 mM sucrose, 1 mM EGTA, 5 mM MgCl2, 50 mM NaF, 1 mM DTT, plus protease inhibitors) and Dounce homogenized on ice with 40 strokes in a Tefloncoated homogenizer. […] After separation by SDS-PAGE, the proteins were detected by autoradiography (for kinase reaction products) or by immunoblotting. Proteins immunoblotted with rabbit and mouse antibodies were detected with protein A-horseradish peroxidase (HRP) (Amersham), and sheep anti-mouse IgG-HRP (Amersham), respectively. […]

Molecule: 5′-GAGACAGGAGGGAGCTTGCT-3′ (all phosphorothioate, sugars by position and methylation of C not given here) [S oligonucleotide, reference compound]
- decrease of basal level of colony outgrowth (basal clonogenic activity) (U2OS cells [1]): 25%
- cell-cycle distribution after IR exposure (U2OS cells [2]): accumulated in both G1 and G2/M phases and were cleared out of S phase

Molecule: O=c1[nH]cc(F)c(=O)[nH]1 [5-FU, 5-fluorouracil, reference compound]
- Ser-15 phosphorylation of p53 (p53): not accompanied by an increase in Ser-15 phosphorylation
- p53 expression (p53): increased p53 expression to levels similar to those observed in UV-irradiated cells

Molecule: COC[C@H]1OC(=O)c2coc3c2[C@@]1(C)C1=C(C3=O)[C@@H]2CCC(=O)[C@@]2(C)C[C@H]1OC(C)=O [wortmannin]
- IC50 (ATX [3]): 0.01 to 0.1 µM
- IC50 (ATX [4]): 1 to 3 µM
